# In patent US20220089612A1, “HETEROCYCLIC COMPOUNDS AS PRMT5 INHIBITORS” (ANGEX PHARMACEUTICAL, INC., priority 2017, published 2022):
# Biological target: PRMT5:MEP50 (Homo sapiens, UniProt O14744)
# Experiment: PRMT5:MEP50 Flashplate Assay
# Assay type: biochemical
# Details: PRMT5:MEP50 inhibitory activity; 3H-SAM, 2 h at room temperature, top concentration 10 μM
# Protocol: PRMT5:MEP50 Flashplate Assay:
# Ten-point curves of inhibitor compounds were made using serial threefold dilutions in DMSO (the final top concentration of compound was 10 μM, 1% DMSO). Reaction mixture consisting of 50 mM Tris-HCl (pH 8.5), 0.002% Tween 20, 0.005% BSA (Bovine Serum Albumin), 1 mM TCEP, and 1% DMSO. Substrates are freshly prepared in reaction buffer. PRMT5:MEP50 was then added into substrate solution and mixed gently. Inhibitor compound was then added and incubated for 30 min at room temperature. ^3H-SAM was added to initiate the reaction. Reactions were incubated for 2 h at room temperature and quenched with 0.5 mM SAM (S-adenosyl-L-Methionine) in assay buffer. An aliquot of the reaction mix was transferred to a streptavidin-coated 384-well FlashPlate (PerkinElmer). After an incubation time of 1 h, the plate was washed and then read on a TopCount (PerkinElmer) to measure the amount of tritium incorporated into the peptide substrate. IC50 was calculated using conventional curve-fitting method.
# Chain of PRMT5:MEP50 (O14744 whole entry, species assumed): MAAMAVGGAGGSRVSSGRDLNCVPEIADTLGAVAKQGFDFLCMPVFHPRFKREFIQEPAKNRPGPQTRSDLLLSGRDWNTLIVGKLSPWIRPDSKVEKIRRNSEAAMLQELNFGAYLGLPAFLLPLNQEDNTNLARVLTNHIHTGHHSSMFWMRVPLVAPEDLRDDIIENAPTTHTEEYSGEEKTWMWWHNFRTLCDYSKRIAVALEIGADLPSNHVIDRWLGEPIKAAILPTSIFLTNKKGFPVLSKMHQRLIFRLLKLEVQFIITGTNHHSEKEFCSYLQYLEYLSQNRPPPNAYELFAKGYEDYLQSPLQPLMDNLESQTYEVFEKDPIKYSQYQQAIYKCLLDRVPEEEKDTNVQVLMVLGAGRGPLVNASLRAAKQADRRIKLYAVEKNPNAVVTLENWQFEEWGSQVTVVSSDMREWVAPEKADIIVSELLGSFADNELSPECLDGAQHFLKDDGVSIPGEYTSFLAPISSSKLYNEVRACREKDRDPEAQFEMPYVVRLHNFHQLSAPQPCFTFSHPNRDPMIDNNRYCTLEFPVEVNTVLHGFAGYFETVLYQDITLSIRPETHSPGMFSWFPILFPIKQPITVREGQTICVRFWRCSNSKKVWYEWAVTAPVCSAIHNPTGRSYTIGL
# Chain of PRMT5:MEP50 (Q9BQA1 whole entry partner, species assumed): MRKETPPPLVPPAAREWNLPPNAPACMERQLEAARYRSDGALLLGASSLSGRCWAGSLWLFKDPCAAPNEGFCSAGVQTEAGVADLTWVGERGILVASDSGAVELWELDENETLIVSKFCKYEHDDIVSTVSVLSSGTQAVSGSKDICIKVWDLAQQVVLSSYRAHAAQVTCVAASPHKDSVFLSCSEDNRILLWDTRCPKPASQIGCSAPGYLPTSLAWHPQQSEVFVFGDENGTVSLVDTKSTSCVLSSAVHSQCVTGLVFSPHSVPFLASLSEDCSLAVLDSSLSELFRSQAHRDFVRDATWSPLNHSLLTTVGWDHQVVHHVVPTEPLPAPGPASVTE
row,IC50,Structure (SMILES)
1,< 1 nM,"C=CC[C@@H]1Cc2cc3ccc(CC[C@H]4C[C@@H](n5ccc6c(N)ncnc65)[C@H](O)[C@@H]4O)cc3nc2N1 [Compound 1-27, (1S,2R,3S,5R)-3-(2-((R)-2-allyl-2,3-dihydro-1H-pyrrolo[2,3-b]quinolin-7-yl)ethyl)-5-(4-amino-7H-pyrrolo[2,3-d]pyrimidin-7-yl)cyclopentane-1,2-diol]"
2,1 to 100 nM,"Nc1ncnc2c1ccn2[C@@H]1C[C@H](CCc2ccc3cc4c(nc3c2)N[C@H](c2ccccc2)C4)[C@@H](O)[C@H]1O [Compound 1-28, (1R,2S,3R,5S)-3-(4-amino-7H-pyrrolo[2,3-d]pyrimidin-7-yl)-5-(2-((S)-2-phenyl-2,3-dihydro-1H-pyrrolo[2,3-b]quinolin-7-yl)ethyl)cyclopentane-1,2-diol]"
3,1 to 100 nM,"Nc1ncnc2c1ccn2[C@@H]1C[C@H](CCc2ccc3cc4c(nc3c2)N[C@H](CC2CC2)C4)[C@@H](O)[C@H]1O [Compound 1-29, (1R,2S,3R,5S)-3-(4-amino-7H-pyrrolo[2,3-d]pyrimidin-7-yl)-5-(2-((R)-2-(cyclopropylmethyl)-2,3-dihydro-1H-pyrrolo[2,3-b]quinolin-7-yl)ethyl)cyclopentane-1,2-diol]"
4,< 1 nM,"CC1(C)Cc2cc3ccc(CC[C@H]4C[C@@H](n5ccc6c(N)ncnc65)[C@H](O)[C@@H]4O)cc3nc2N1 [Compound 1-30, (1R,2S,3R,5S)-3-(4-amino-7H-pyrrolo[2,3-d]pyrimidin-7-yl)-5-(2-(2,2-dimethyl-2,3-dihydro-1H-pyrrolo[2,3-b]quinolin-7-yl)ethyl)cyclopentane-1,2-diol]"
5,< 1 nM,"Nc1ncnc2c1ccn2[C@@H]1C[C@H](CCc2ccc3cc4c(nc3c2)NC2(CC2)C4)[C@@H](O)[C@H]1O [Compound 1-31, (1R,2S,3R,5S)-3-(4-amino-7H-pyrrolo[2,3-d]pyrimidin-7-yl)-5-(2-(1′,3′-dihydrospiro[cyclopropane-1,2′-pyrrolo[2,3-b]quinolin]-7′-yl)ethyl)cyclopentane-1,2-diol]"
6,1 to 100 nM,"Nc1ncnc2c1ccn2[C@@H]1C[C@H](CCc2ccc3cc4c(=O)[nH][nH]c4nc3c2)[C@@H](O)[C@H]1O [Compound 1-32, 7-(2-((1S,2R,3S,4R)-4-(4-amino-7H-pyrrolo[2,3-d]pyrimidin-7-yl)-2,3-dihydroxycyclopentyl)ethyl)-1,2-dihydro-3H-pyrazolo[3,4-b]quinolin-3-one]"
7,> 100 nM,"Nc1ncnc2c1ccn2[C@@H]1C[C@H](CCc2ccc3cc4c(=O)n(-c5ccccc5)[nH]c4nc3c2)[C@@H](O)[C@H]1O [Compound 1-33, 7-(2-((1S,2R,3S,4R)-4-(4-amino-7H-pyrrolo[2,3-d]pyrimidin-7-yl)-2,3-dihydroxycyclopentyl)ethyl)-2-phenyl-1,2-dihydro-3H-pyrazolo[3,4-b]quinolin-3-one]"
8,> 100 nM,"Cn1[nH]c2nc3cc(CC[C@H]4C[C@@H](n5ccc6c(N)ncnc65)[C@H](O)[C@@H]4O)ccc3cc2c1=O [Compound 1-34, 7-(2-((1S,2R,3S,4R)-4-(4-amino-7H-pyrrolo[2,3-d]pyrimidin-7-yl)-2,3-dihydroxycyclopentyl)ethyl)-2-methyl-1,2-dihydro-3H-pyrazolo[3,4-b]quinolin-3-one]"
9,< 1 nM,"Nc1ncnc2c1ccn2[C@@H]1C[C@H](CCc2ccc3cc4c(nc3c2)NCCC4)[C@@H](O)[C@H]1O [Compound 1-35, (1R,2S,3R,5S)-3-(4-amino-7H-pyrrolo[2,3-d]pyrimidin-7-yl)-5-(2-(1,2,3,4-tetrahydrobenzo[b][1,8]naphthyridin-8-yl)ethyl)cyclopentane-1,2-diol]"
10,< 1 nM,"C[C@H]1CCc2cc3ccc(CC[C@H]4C[C@@H](n5ccc6c(N)ncnc65)[C@H](O)[C@@H]4O)cc3nc2N1 [Compound 1-36, (1R,2S,3R,5S)-3-(4-amino-7H-pyrrolo[2,3-d]pyrimidin-7-yl)-5-(2-((S)-2-methyl-1,2,3,4-tetrahydrobenzo[b][1,8]naphthyridin-8-yl)ethyl)cyclopentane-1,2-diol]"
11,< 1 nM,"C[C@@H]1CCc2cc3ccc(CC[C@H]4C[C@@H](n5ccc6c(N)ncnc65)[C@H](O)[C@@H]4O)cc3nc2N1 [Compound 1-37, (1R,2S,3R,5S)-3-(4-amino-7H-pyrrolo[2,3-d]pyrimidin-7-yl)-5-(2-((R)-2-methyl-1,2,3,4-tetrahydrobenzo[b][1,8]naphthyridin-8-yl)ethyl)cyclopentane-1,2-diol]"
12,< 1 nM,"Nc1ncnc2c1ccn2[C@@H]1C[C@H](CCc2ccc3cc4c(nc3c2)N[C@H](C2CC2)CC4)[C@@H](O)[C@H]1O [Compound 1-38, (1R,2S,3R,5S)-3-(4-amino-7H-pyrrolo[2,3-d]pyrimidin-7-yl)-5-(2-((S)-2-cyclopropyl-1,2,3,4-tetrahydrobenzo[b][1,8]naphthyridin-8-yl)ethyl)cyclopentane-1,2-diol]"
13,1 to 100 nM,"CC(C)[C@@H]1CCc2cc3ccc(CC[C@H]4C[C@@H](n5ccc6c(N)ncnc65)[C@H](O)[C@@H]4O)cc3nc2N1 [Compound 1-39, (1R,2S,3R,5S)-3-(4-amino-7H-pyrrolo[2,3-d]pyrimidin-7-yl)-5-(2-((S)-2-isopropyl-1,2,3,4-tetrahydrobenzo[b][1,8]naphthyridin-8-yl)ethyl)cyclopentane-1,2-diol]"
14,1 to 100 nM,"Nc1ncnc2c1ccn2[C@@H]1C[C@H](CCc2ccc3cc4c(nc3c2)N[C@H](C2CCC2)CC4)[C@@H](O)[C@H]1O [Compound 1-40, (1R,2S,3R,5S)-3-(4-amino-7H-pyrrolo[2,3-d]pyrimidin-7-yl)-5-(2-((S)-2-cyclobutyl-1,2,3,4-tetrahydrobenzo[b][1,8]naphthyridin-8-yl)ethyl)cyclopentane-1,2-diol]"
15,< 1 nM,"Nc1ncnc2c1ccn2[C@@H]1C[C@H](CCc2ccc3cc4c(nc3c2)NCCCC4)[C@@H](O)[C@H]1O [Compound 1-41, (1R,2S,3R,5S)-3-(4-amino-7H-pyrrolo[2,3-d]pyrimidin-7-yl)-5-(2-(2,3,4,5-tetrahydro-1H-azepino[2,3-b]quinolin-9-yl)ethyl)cyclopentane-1,2-diol]"
16,< 1 nM,"CC1(C)CNc2nc3cc(CC[C@H]4C[C@@H](n5ccc6c(N)ncnc65)[C@H](O)[C@@H]4O)ccc3cc21 [Compound 2-3, (1R,2S,3R,5S)-3-(4-amino-7H-pyrrolo[2,3-d]pyrimidin-7-yl)-5-(2-(3,3-dimethyl-2,3-dihydro-1H-pyrrolo[2,3-b]quinolin-7-yl)ethyl)cyclopentane-1,2-diol]"
17,1 to 100 nM,"Nc1ncnc2c1ccn2[C@@H]1O[C@H](CCc2ccc3cc4c(nc3c2)NCC4)[C@@H](O)[C@H]1O [Compound 3-8, (2R,3R,4S,5R)-2-(4-amino-7H-pyrrolo[2,3-d]pyrimidin-7-yl)-5-(2-(2,3-dihydro-1H-pyrrolo[2,3-b]quinolin-7-yl)ethyl)tetrahydrofuran-3,4-diol]"
18,1 to 100 nM,"CC1(C)CNc2nc3cc(CC[C@H]4O[C@@H](n5ccc6c(N)ncnc65)[C@H](O)[C@@H]4O)ccc3cc21 [Compound 3-9, (2R,3R,4S,5R)-2-(4-amino-7H-pyrrolo[2,3-d]pyrimidin-7-yl)-5-(2-(3,3-dimethyl-2,3-dihydro-1H-pyrrolo[2,3-b]quinolin-7-yl)ethyl)tetrahydrofuran-3,4-diol]"
19,< 1 nM,"NC1=Nc2cc(CC[C@H]3O[C@@H](n4ccc5c(N)ncnc54)[C@H](O)[C@@H]3O)ccc2C2=NCCN12 [Compound 3-10, (2R,3S,4R,5R)-2-(2-(5-amino-2,3-dihydroimidazo[1,2-c]quinazolin-8-yl)ethyl)-5-(4-amino-7H-pyrrolo[2,3-d]pyrimidin-7-yl)tetrahydrofuran-3,4-diol]"
20,1 to 100 nM,"Nc1ncnc2c1ccn2[C@@H]1O[C@H](CCc2ccc3c(c2)nc(N)n2ccnc32)[C@@H](O)[C@H]1O [Compound 3-11, (2R,3R,4S,5R)-2-(4-amino-7H-pyrrolo[2,3-d]pyrimidin-7-yl)-5-(2-(5-aminoimidazo-[1,2-c]quinazolin-8-yl)ethyl)tetrahydrofuran-3,4-diol]"
21,1 to 100 nM,"Nc1ncnc2c1ccn2[C@@H]1O[C@H](CCc2ccc3cc4cn[nH]c4nc3c2)[C@@H](O)[C@H]1O [Compound 3-12, (2R,3S,4R,5R)-2-(2-(1H-pyrazolo[3,4-b]quinolin-7-yl)ethyl)-5-(4-amino-7H-pyrrolo[2,3-d]pyrimidin-7-yl)tetrahydrofuran-3,4-diol]"
22,< 1 nM,"Nc1ncnc2c1ccn2[C@@H]1O[C@H](CCc2ccc3cc4c(nc3c2)NCCC4)[C@@H](O)[C@H]1O [Compound 3-13, (2R,3R,4S,5R)-2-(4-amino-7H-pyrrolo[2,3-d]pyrimidin-7-yl)-5-(2-(1,2,3,4-tetrahydrobenzo[b][1,8]naphthyridin-8-yl)ethyl)tetrahydrofuran-3,4-diol]"
23,1 to 100 nM,"Nc1ncnc2c1ccn2[C@@H]1C[C@H](CCc2ccc3cc4cc[nH]c4nc3c2)[C@@H](O)[C@H]1O [Compound 4-3, (1S,2R,3S,5R)-3-(2-(1H-pyrrolo[2,3-b]quinolin-7-yl)ethyl)-5-(4-amino-7H-pyrrolo[2,3-d]pyrimidin-7-yl)cyclopentane-1,2-diol]"
